The subject of one assay is indomethacin ulcer. The assay is described as follows: inhibitory activity on indomethacin ulcer. The note with it: rat indomethacin ulcer, oral administration of 40 µg/kg. Type of assay: in vivo, Wister male rats. How it is done: The inhibiting effect on ulcer formation induced by indomethacin was examined by using Wister male rats (7 weeks old, body weight 220 g) which were fasted for 24 hours, except for water, and then subjected to experiment.
The sample compound to be tested was dissolved in a phosphoric acid buffer (pH 7.4) containing 0.9% NaCl and the solution was orally administered to the rats. 30 minutes after the administration, indomethacin was orally administered to the rats at a dose of 20 mg/kg. 5 hours after the administratin of the indomethacin, the rats were killed and the ulcer formation in the stomach was examined by determining the length of the ulcer formation portion under a stereomicroscope. From this measurement, the inhibition of ulcer formation by the sampel compound was calculated to determine the IC50 values.

Another assay concerns ethanol ulcer. The assay is described as follows: inhibitory activity on ethanol ulcer. The note with it: rat ethanol ulcer, oral administration of 4 ug/kg. It is filed as in vivo, SD-strain rats. On the procedure:
An ethanol ulcer test was carried out by the following procedure. SD-strain rats (body weight 200 to 220 g; 7 week old) were fasted for 24 hours, and a solution of the test compound in physiological saline buffered with phosphate buffer at pH 7.5 was orally administered. Thirty minutes after the administration, 75% ethanol was orally administered in a dose of 1 ml/kg. One hour later, the abdomen was incised to isolate the stomach. […] The total of these lengths was […] ulcer index. From this measurement, the inhibition of ulcer formatin by the test compound was calculated, to determine the IC50 value.

In assay [1] the test system is platelet aggregation. Kind of assay: in vitro inhibitory activity of platelet aggregation (ADP-induced, platelet-rich plasma). Type of assay: cell-based, Japanese domestic white male rabbits. The note with it: Oryctolagus cuniculus; rabbit PRP, 10 µM ADP; minimum concentration which inhibited more than 50% of platelet aggregation; read-out: Inhibition of Platelet in vitro IC50. On the procedure: The in vitro platelet aggregation imhibiting activity of the compound of the invention was examined by using rabbits. Blood was withdrawn from the ear vein of Japanese domestic white male rabbits weighing 2.5 to 3.5 kg. A mixture of a 3.8% trisodium citrate solution and the blood in a ratio of 1:9 was centrifuged at a speed of 1000 rpm for 10 minutes. The upper layer was separated as platelet-rich plasma (PRP). The lower layer was further centrifuged at a speed of 2800 rpm for 10 minutes. The upper layer was separated as platelet- poor plasma (PPP). The number of plate lets was adjusted to 6 x 105/µℓ. to 7 x 105/µℓ. by diluting the PRP with PPP. 25 microliters of the test compound prepared as shown below was added with an amount of 25 to 250 microliters of PRP after the adjustment, and the mixture was pre-incubated at 37°C for 2 minutes, and then 10 µM (final) of ADP was added. Changes in transmission were recorded by using an aggregometer.
The drug was dissolved in ethanol to a concentration of 10 mg/ml, and seccussively diluted with phosphate buffer (pH 7.4) prior to use.
The rate of inhibition of platelet aggregation was determined from the following equation. [formula] • T0: the transmittance of the system containing the phosphate buffer, • T : the transmittance of the system to which the test drug was added. […]

For a further assay, the system named is blood pressure. The assay is described as follows: activity on blood pressure, intravenous injection under anesthesia. Type of assay: in vivo, male wister rats. The conditions noted are these: Rattus norvegicus, i.v., dosage which caused a 20% lowering of the mean blood pressure, anesthetized rats. On the procedure:
The actions of the 5-thiaprostaglandin of the invention on the blood pressure was examined by intravenous injection under anesthesia.
Urehtane (500 mg/kg) and a-chloralose (100 mg/kg) were intraperitoneally administered to male wister rats weighing about 250 g. The rats were anesthetized and fixed in place.
The test compound was dissolved in a small amount of ethanol and diluted with physiological saline to adjust the final ethanol concentration to not more than 5%. The solution was intravenously injected into the rats through a catheter inserted into the femoral vein.
The blood pressure of the rats was measured by a pressure transducer through a catheter inserted into the carotid artery of the rats.
The action of the test compound on the blood pressure was expressed as the dosage (ED20 , ug/kg) of the test compound which caused a 20% lowering of the mean blood pressure before administration of the compound.

In assay [2] the test system is platelet aggregation. The assay is described as follows: extra vivo inhibitory activity of platelet aggregation after oral administration. It is filed as in vivo, Hartley-strain guinea pigs. The conditions noted are these: guinea pigs, oral 0.3-3 mg/kg, blood drawn 1 hour after administration, N.E.: no-effect. On the procedure:
The extra vivo platelet aggregation inhibitory activity of the 5-thiaprostaglandin E1 derivatives of the invention were measured by using guinea pigs. A test drug prepared as a 10% ethanol solution of the compound of the invention in ethanol diluted with 10% ethanol-0.5% Tween 80 in saline were orally administered in a dose of 0.3-3 mg/kg, and as a control 10% ethanol-0.5% Tween 80 in saline was orally administered in a dose of 1 ml/kg to Hartley-strain guinea pigs having a body weight of 350 to 450 g which had been fasted for 17 hours. 1 hour after the administration of the compound, blood was drawn off by carbiac puncture using trisodium citrate so that the ratio of the blood to 3.8% trisodium citrate was 9:1. The blood was centrifuged at a speed of 700 rpm for 10 minutes. The upper layer was separated as platelet-rich plasma (PRP). The lower layer was further centrifuged at a speed of 2800 rpm for 10 minutes. The upper layer was separated as platelet poor plasma (PPP). A 250 microliter amount of the - resulting PRP was taken into an aggregometer cuvette and incubated at 37°C for 2 minutes. […] The aggregation curve was recorded for 5 minutes. The maximum degree of aggregation of platelets within this time period was read, and the rate of inhibition of platelet aggregation was calculated from the following equation. […]

Molecules are shown by their SMILES. Values after ≈ are worked out from the molar mass of the structure shown.

Experimental findings from patent EP0197800A2, “5-Thiaprostaglandins E1 and process for producing same” (TEIJIN LIMITED, priority 1985, dated 1986) are described below.

With `CCCC[C@](C)(O)C/C=C/[C@H]1[C@H](O)CC(=O)[C@@H]1CCSCCCC(=O)OC` [Compound of example 6, (16S)-15-deoxy-16-hydroxy-16-methyl-5-thiaprostaglandin E1 methyl ester], the “preventive rate of ulcer generation” value in the assay with indomethacin ulcer was “about 50%”. The “prevention rate of ulcer generation” value with ethanol ulcer is recorded as “about 50%”. For the same compound, the IC50 in the assay with platelet aggregation [1] was 60 µg/mL (≈ 150 µM). In the assay with blood pressure, this compound returned an ED20 of 2.1 µg/kg. In addition, the “Inhibition of Platelet extra vivo ADP” value in the assay on platelet aggregation [2] (ADP-induced aggregation) is given as “N.E”. Moreover, the “Inhibition of Platelet extra vivo collagen” value with platelet aggregation [2] (collagen-induced aggregation) is given as “N.E”.
